Experimental data published in patent US20110123600A1, “Use of alkylureas for treating acne” (priority 2005, published 2011).

Assays:
Candida albicans = assay: Plate count after one hour contact with butylurea solution; assay type: cell-based; conditions: 0.4M BU, vs saline control
Description: (§1) Preparation of Sample: 11.6 grams of butyl urea (BU) sample was weighed accurately and dissolved in de-ionized water to 100 ml into 100 ml volumetric flask and mixed to form a 1M (11.6% w/v) solution. Then, 10.0 ml of the 1M solution was mixed with 12.7 ml de-ionized water to form a 0.44M (5.1% w/v) solution. (10.0 ml×1.0M÷22.7 ml=0.44M). Finally, the 0.44M solution was filtered through sterile syringe filters to sterilize.
(§2) Procedure: For the 0.4M butylurea solutions, 4.5 ml was aliquoted into seven (7) 16×150 mm sterile glass test tubes. 4.5 ml sterile physiological saline was also aliquoted into seven (7) 16×150 […] sterile glass test tubes as a control.
(§3) 0.6 ml of culture suspension was inoculated into 0.44M BU and saline control tube for each organism tested and mixed. After one hour contact time a 1.0 ml sample culture mixer was diluted serially into 10^6 into 9.0 ml GBL Stat Broth (TSB; 0.5% Leethen; 4% Tween 20 and 0.1% […]).
(§4) One ml Aerobic Plate Count was performed from each dilution tubes using Trypticase Soy Agar. Plates were incubated at 37±° C. for 48 hours. Except Candida albicans plates were poured with Sabourad Dextrose Agar and incubated at 20 to 25° C. for 5 to 7 days. Colonies were counted using a Quebec Colony Counter.

acne lesions = assay: BU aqueous solution applied to acne lesions in adolescents; assay type: in vivo; conditions: 0.5 molar (5.8% w/v) aqueous solution, twice daily, 5 adolescents
Description: BU in an squeous solution: A 0.5 molar (5.8% w/v) solution of BU was applied twice daily with Q tips to acne lesions in 5 adolescents. BU was applied to cystic purulent lesions, to non cystic lesions with erythema and to early lesions with minimal inflammation. The inflammatory response resolved in all lesions within 24-48 hours, whereas purulent cystic lesions healed without scarring within 3-7 days.

[1] = tested on: inflamed cystic lesions of acne; assay: BU in polymer gel applied topically to patients with inflamed cystic lesions of acne; assay type: in vivo; conditions: polymer gel releasing 0.4 to 0.5 molar BU, 11 patients
Description: BU in polymer gels: BU incorporated in a polymer gel designed to release the chemical within 30 minutes to 3 hours was administered topically to 11 patients with inflamed cystic lesions of acne. The BU end concentration to be released was between 0.4 to 0.5 molar. Applications to the lesions alone were made 3× daily for 1 week. […] The purulent discharge as well as the inflammatory component of all lesions resolved often within 24 hours.

Staphylococcus aureus = assay: Aerobic plate count after one hour contact with butylurea solution; assay type: cell-based; conditions: 0.4M BU, vs saline control
Description: as §1, §2, §3, §4

Streptococcus pyogenes = assay: as above; assay type: cell-based; conditions: 0.4M BU, vs saline control
Description: as §1, §2, §3, §4

CCCCNC(N)=O [BU, butyl urea]
log Reduction in count (Candida albicans): 0.4 log Reduction | Time to healing of purulent cystic lesions without scarring (acne lesions): 3 to 7 days | Time to resolution of inflammatory response in all lesions (acne lesions): 24 to 48 h | Local adverse reactions ([1]; topical 3x daily for 1 week): no local adverse reactions were noted | Resolution of lesions by the end of the treatment ([1]; topical 3x daily for 1 week): Most of the lesions resolved | Time to resolution of purulent discharge and inflammatory component of all lesions ([1]; topical 3x daily, 'often'): ≤ 24 h | Reduction in bacterial count (Staphylococcus aureus): Not Active | log Reduction in bacterial count (Streptococcus pyogenes): 2 log Reduction
